Experimental data as given in patent US7259250B2, “C-nitroso compounds and use thereof” (Duke University, priority 2000, dated 2007).

Assays:
[1] = Water solubility (dissolves in water at least to 1 micromolar); type: physicochemical; settings: water-soluble = dissolves in water at least to 1 micromolar
Description: As used herein, the term “water-soluble” means dissolves in water at least to provide a concentration of 1 micromolar.

[2] = system: rabbit aortic ring (smooth muscle); test: Relaxation of rabbit aortic ring (Example II, tension tracings FIGS. 1-10); type: cell-based
Protocol: The ability of various C-nitroso compounds as described below to relax a rabbit aortic ring (smooth muscle) was carried out as described in Stamler, J., et al., PNAS, Vol. 89, 444-448 (1992).
Results shown in FIGS. 1-10 which are tracings of force (tension) in the Y-direction versus time in the X-direction with downward direction indicating relaxation and upward direction indicating constriction. Concentrations of C-nitroso compound applied at time in the X-direction are indicated as 10^−9 (1 nanomolar), 10^−6 (1 micromolar), 10^−3 (1 milimolar), etc. “PE” on the figures means the application of phenylephrine, a constricting agent.

[3] = system: person with angina; test: Example IV: patient case, angina with nitrate tolerance; type: in vivo, human
[4] = cited from earlier work
[5] = system: person with arthritis, esophageal spasm, coronary artery disease, congestive heart failure, impotence and nightly urinary incontinence; test: Example III: patient case, ibuprofen partly given as nitrosoketoibuprofen; type: in vivo, human
[6] = compound alone, at micromolar concentration(s)

In the case of CCC(N=O)(C(C)=O)C(C)=O [3-ethyl-3-nitroso-2,4-pentanedione], the “water solubility (in words)” value [1] is reported as “do not meet the definition of water solubility”.

For CC(C)(C)N=O [2-methyl-2-nitrosopropane], the “relaxation activity (in words)” value ([2]; compound alone, at any of the concentrations used, FIG. 10) was “no relaxation effect activity” and the “water solubility (in words)” value [1] was “not water soluble”.

For CC(=O)C1(C)CCC2CCCC[C@@H]2ON1O (some centres unmarked) [Compound (135a)], the outcome of angina ([3]; 20 μg/min continuously, after nitroglycerin stopped) was “relief of angina”.

In the case of CC(C)C(=O)c1ccc(C(C)C(=O)O)cc1 (centres unmarked) [2-(4′-isobutyrylphenyl)propionic acid], the “carbon acid pKa” value ([4]; of the named substance itself) is given as “about 20”.

With O=[N+]([O-])OCC(CO[N+](=O)[O-])O[N+](=O)[O-] [nitroglycerin] the tolerance development ([3]; angina treated with nitroglycerin) was “nitrate tolerance”.

For O=Nc1ccccc1 [C-nitrosobenzene], the “relaxation activity (in words)” value [2, 6] was “no activity”.

For CC(=O)C(C)(N=O)C(C)=O [3-methyl-3-nitroso-2,4-petanedione, 3-methyl-3-nitroso-2,4-pentanedione], the “concentration at which relaxation effect is displayed” value ([2]; compound alone) was “greater than 10 micromolar”, the “concentration at which further relaxation effect is displayed” value ([2]; compound alone, FIG. 9) was “greater than 100 micromolar” and the “water solubility (in words)” value [1] was “not water soluble”. The “water solubility (in words)” value ([1]; listed as 3-methyl-3-nitroso-2,4-pentanedione) was “do not meet the definition of water solubility” and the “pKa of the carbon acid from which the C-nitroso compound is obtained” value ([4]; pKa of the parent carbon acid, not of the C-nitroso compound) was “less than 10”.

With CC(C)Cc1ccc(C(C)C(=O)O)cc1 (centres unmarked) [ibuprofen] the adverse effect ([5]; ibuprofen 400 mg, three times a day) was “gastrointestinal upset”.

With C-nitrosophenol the “relaxation activity (in words)” value [2, 6] was “no activity”.

For CC(C(=O)O)c1ccc(C(=O)C(C)(C)[N+]([O-])=[N+]([O-])C(C)(C)C(=O)c2ccc(C(C)C(=O)O)cc2)cc1 (stereo not drawn) [nitrosoketoibuprofen, dimeric 2-[4′-(α-nitroso)isobutyrylphenyl]propionic acid], the “concentration at which relaxation effect is displayed” value ([2]; compound alone, FIGS. 5 and 6) was 10 nM, the “relaxation activity (in words)” value ([2]; compound alone, at concentration higher than 10 nanomolar, FIG. 6) was “not much more activity” and the “relaxation activity (in words)” value ([2]; in conjunction with 100 μM glutathione, FIG. 7) was “no activity”. For the same molecule, the “activity (in words)” value ([2]; without glutathione, at nanomolar concentrations) was “therapeutically active” and the outcome of symptoms ([5]; ibuprofen 400 mg three times a day with 0.1% by weight of the drug as the dimeric nitrosoketoibuprofen) was “all symptoms are relieved”.

In the case of CC(C)(N=O)C(=O)CCC(=O)Oc1ccccc1C(=O)O [Compound (129a)], the “concentration at which relaxation effect is shown” value ([2]; compound alone, FIG. 1) is reported as 10 µM.
